The target of assay [1] is 5-hydroxytryptamine receptor 2B (Homo sapiens, UniProt P41595). In kind it is cell membranes, CHO-K1, Membrane. The settings on record: for Ki: read-out: Ki. As to all read-outs here: in other assays of this panel Not Active means under 50% inhibition at 10 µM.
The target in assay [2] is C-C chemokine receptor type 5 (Homo sapiens, UniProt P51681). In kind it is cell membranes, Membrane. The settings on record: hek293. Also: in other assays of this panel Not Active means under 50% inhibition at 10 µM.
C-C chemokine receptor type 5, sequence (P51681 whole entry): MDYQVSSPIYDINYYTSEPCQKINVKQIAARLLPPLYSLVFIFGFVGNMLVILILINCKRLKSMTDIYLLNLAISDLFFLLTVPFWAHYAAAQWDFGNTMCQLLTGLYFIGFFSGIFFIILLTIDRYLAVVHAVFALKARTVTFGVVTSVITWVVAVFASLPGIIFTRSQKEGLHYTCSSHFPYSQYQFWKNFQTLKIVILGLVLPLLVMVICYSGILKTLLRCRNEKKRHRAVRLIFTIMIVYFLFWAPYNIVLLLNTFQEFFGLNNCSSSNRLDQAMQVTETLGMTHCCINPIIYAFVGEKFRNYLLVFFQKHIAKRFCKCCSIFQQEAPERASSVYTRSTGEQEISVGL
The target in assay [3] is Prostaglandin G/H synthase 1 (Homo sapiens, UniProt P23219). As to the kind of experiment: biochemical. In kind it is tissue-based, Platelet.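 Also: inhibition of COX-1 enzyme activity, with arachidonic acid supplied as substrate; in other assays of this panel Not Active means under 50% inhibition at 10 µM.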
Prostaglandin G/H synthase 1, sequence (P23219 whole entry): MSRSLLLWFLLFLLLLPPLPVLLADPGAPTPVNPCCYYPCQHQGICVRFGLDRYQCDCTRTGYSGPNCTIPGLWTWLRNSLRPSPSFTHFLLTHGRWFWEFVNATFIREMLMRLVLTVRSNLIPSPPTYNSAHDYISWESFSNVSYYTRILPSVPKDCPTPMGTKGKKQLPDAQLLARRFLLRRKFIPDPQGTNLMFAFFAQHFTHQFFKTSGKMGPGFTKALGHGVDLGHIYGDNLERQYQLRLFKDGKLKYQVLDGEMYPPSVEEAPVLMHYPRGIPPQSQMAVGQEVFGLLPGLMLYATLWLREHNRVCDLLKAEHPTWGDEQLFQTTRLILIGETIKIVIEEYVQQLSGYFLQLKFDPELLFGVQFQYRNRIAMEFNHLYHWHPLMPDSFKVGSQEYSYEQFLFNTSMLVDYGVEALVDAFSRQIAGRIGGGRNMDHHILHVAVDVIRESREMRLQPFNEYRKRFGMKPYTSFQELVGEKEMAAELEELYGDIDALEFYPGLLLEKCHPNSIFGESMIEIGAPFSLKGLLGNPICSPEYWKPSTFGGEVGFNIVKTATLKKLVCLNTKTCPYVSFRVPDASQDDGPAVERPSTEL
Assay [4] can be described thus: DRUGMATRIX: Glutamate, NMDA, Phencyclidine radioligand binding (ligand: [3H] TCP). The assay is classed as cell membranes, Rattus norvegicus, Wistar, Cerebral cortex, Membrane. The following applies: Not Active = under 50% inhibition at 10 µM.
Assay [5] is described as follows: DRUGMATRIX: Leukotriene, BLT (LTB4) radioligand binding (ligand: [3H]LTB4). In kind it is cell membranes, Membrane. The settings on record: u-937; Not Active = under 50% inhibition at 10 µM.
The target of assay [6] is T1, Amine oxidase [flavin-containing] A (Homo sapiens, UniProt P21397).
T1 sequence (P21397 whole entry): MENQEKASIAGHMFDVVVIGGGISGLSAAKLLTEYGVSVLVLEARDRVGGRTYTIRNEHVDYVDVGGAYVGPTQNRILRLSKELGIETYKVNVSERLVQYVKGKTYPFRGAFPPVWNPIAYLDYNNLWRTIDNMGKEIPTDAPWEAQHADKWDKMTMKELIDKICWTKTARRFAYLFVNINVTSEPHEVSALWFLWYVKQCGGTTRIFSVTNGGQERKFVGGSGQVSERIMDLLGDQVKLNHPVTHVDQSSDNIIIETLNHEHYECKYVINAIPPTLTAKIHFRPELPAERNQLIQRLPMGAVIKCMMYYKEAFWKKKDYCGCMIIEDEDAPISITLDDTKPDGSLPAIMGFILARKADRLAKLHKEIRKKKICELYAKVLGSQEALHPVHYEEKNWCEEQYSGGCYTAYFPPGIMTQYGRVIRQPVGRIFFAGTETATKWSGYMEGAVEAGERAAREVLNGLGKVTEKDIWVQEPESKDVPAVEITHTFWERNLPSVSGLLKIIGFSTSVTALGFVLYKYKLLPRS
Kind of assay: DRUGMATRIX: Monoamine Oxidase MAO-A enzyme inhibition (substrate: Kynuramine). Set-up: species or system BTI-TN-5B1-4. The settings on record: bti-tn-5b1-4; Not Active = under 50% inhibition at 10 µM.

Assay [7] addresses Delta-type opioid receptor (Homo sapiens, UniProt P41143). The assay is classed as cell membranes, HEK293, Membrane. The settings on record: hek293.
For assay [8], the target named is Estrogen receptor beta (Homo sapiens, UniProt Q92731). The settings on record: sf9. Also: in other assays of this panel Not Active means under 50% inhibition at 10 µM.
Estrogen receptor beta, sequence (Q92731 whole entry): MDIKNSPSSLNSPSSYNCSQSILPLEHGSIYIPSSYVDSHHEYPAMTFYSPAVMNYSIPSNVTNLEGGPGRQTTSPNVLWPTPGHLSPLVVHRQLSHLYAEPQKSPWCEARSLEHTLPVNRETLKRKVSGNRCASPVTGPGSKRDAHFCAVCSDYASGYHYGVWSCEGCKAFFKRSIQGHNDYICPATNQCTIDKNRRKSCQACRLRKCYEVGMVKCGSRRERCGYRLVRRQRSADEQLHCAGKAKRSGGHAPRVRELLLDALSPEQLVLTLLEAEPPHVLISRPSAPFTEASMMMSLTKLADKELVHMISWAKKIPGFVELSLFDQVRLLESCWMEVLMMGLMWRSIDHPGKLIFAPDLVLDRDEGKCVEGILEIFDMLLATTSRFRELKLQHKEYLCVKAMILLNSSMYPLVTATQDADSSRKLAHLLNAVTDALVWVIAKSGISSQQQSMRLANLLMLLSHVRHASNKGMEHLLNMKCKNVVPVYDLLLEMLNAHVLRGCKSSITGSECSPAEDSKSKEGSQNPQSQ

5-hydroxytryptamine receptor 2B, sequence (P41595 whole entry): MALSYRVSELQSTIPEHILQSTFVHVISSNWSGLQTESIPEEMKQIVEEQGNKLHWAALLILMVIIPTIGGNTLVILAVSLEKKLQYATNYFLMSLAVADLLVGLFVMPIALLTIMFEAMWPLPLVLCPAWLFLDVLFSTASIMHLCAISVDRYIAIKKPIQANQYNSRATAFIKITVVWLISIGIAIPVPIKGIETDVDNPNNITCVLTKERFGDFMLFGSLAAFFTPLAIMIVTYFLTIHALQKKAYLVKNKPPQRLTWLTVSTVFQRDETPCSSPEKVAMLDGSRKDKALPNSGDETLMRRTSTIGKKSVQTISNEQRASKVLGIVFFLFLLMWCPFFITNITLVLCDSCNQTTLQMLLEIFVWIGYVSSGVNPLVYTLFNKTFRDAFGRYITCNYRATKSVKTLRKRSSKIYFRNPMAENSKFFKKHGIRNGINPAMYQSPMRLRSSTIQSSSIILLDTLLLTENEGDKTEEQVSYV
Delta-type opioid receptor, sequence (P41143 whole entry): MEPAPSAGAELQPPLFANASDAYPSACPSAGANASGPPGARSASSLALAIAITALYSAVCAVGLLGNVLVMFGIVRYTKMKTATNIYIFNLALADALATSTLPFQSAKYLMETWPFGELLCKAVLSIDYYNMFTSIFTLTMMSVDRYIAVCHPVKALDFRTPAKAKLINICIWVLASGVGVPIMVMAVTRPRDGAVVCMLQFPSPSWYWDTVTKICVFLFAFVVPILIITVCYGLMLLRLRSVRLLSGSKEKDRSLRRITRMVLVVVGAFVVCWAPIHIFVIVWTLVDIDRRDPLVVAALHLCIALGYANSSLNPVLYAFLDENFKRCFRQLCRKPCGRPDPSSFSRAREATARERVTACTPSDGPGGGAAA

Usually IC50 stands for the midpoint of a concentration-inhibition curve. The Ki is a dissociation constant, usually derived from enzyme kinetics or from competition with a known ligand. For `Nn1nnc2ccccc21`, the half-maximal inhibitory concentration (IC50) entry in assay [1] (cho-k1), in assay [2], in assay [3] (platelet), in assay [4], in assay [5] and in assay [6] was “Not Active” throughout. The half-inhibitory concentration (IC50) result in assay [7] and in assay [8] was “Not Active” in each case. For the same compound, the inhibition constant (Ki) result in assay [4] and in assay [5] was “Not Active” each time.
Consider `CC[C@]1(O)CC[C@H]2[C@@H]3CCC4=CCCC[C@@H]4[C@H]3CC[C@@]21C`, for which the half-maximal inhibitory concentration (IC50) result in assay [1] (cho-k1), in assay [2], in assay [3] (platelet), in assay [4], in assay [5] and in assay [6] was “Not Active” each time. The concentration for half-maximal inhibition (IC50) entry in assay [7] and in assay [8] was “Not Active” throughout. Moreover, the Ki result in assay [4] and in assay [5] was “Not Active” in each case.
For the compound `N[C@@H](Cc1ccc(F)cc1)C(=O)O`, the 50% inhibitory concentration (IC50) entry in assay [1] (cho-k1), in assay [2], in assay [3] (platelet), in assay [4], in assay [5] and in assay [6] was “Not Active” each time. Also, the IC50 result in assay [7] and in assay [8] was “Not Active” throughout. Further, the inhibition constant Ki result in assay [4] and in assay [5] was “Not Active” in each case.
As to `CCOC(=O)[C@H](CCc1ccccc1)N[C@@H](C)C(=O)N1Cc2ccccc2C[C@H]1C(=O)O`, the IC50 result in assay [1] (cho-k1), in assay [2], in assay [3] (platelet), in assay [4], in assay [5] and in assay [6] was “Not Active” each time. For the same compound, the IC50 result in assay [7] and in assay [8] was “Not Active” throughout. In addition, the Ki entry in assay [4] and in assay [5] was “Not Active” each time.
Consider `O=C(c1ccccc1Cl)N1CCC(Cc2ccccc2)CC1`, for which the IC50 in assay [1] (read-out: IC50) was 1510 nM; in assay [2] it was “Not Active”; in assay [3] (platelet), “Not Active”; in assay [4], “Not Active”; in assay [5], “Not Active”; in assay [6], “Not Active”. The IC50 result in assay [7] and in assay [8] was “Not Active” in each case. The Ki in assay [1] is 960 nM; in assay [4] it was “Not Active”; in assay [5], “Not Active”.
For the compound `Clc1cc2c(cc1Cl)Oc1cc(Cl)c(Cl)cc1O2` [2,3,7,8-TETRACHLORODIBENZO-P-DIOXIN], the 50% inhibitory concentration (IC50) entry in assay [1] (cho-k1), in assay [2], in assay [3] (platelet), in assay [4], in assay [5] and in assay [6] was “Not Active” in each case. In addition, the IC50 entry in assay [7] and in assay [8] was “Not Active” throughout. In addition, the Ki entry in assay [4] and in assay [5] was “Not Active” in each case.
Consider `C=C1/C(=C\C=C2/CCC[C@]3(C)[C@@H]([C@H](C)CCCC(C)C)CC[C@@H]23)C[C@@H](O)C[C@@H]1O` [ALFACALCIDOL], for which the IC50 result in assay [1] (cho-k1), in assay [2], in assay [3] (platelet), in assay [4], in assay [5] and in assay [6] was “Not Active” in each case. Moreover, the IC50 entry in assay [7] and in assay [8] was “Not Active” in each case. The Ki result in assay [4] and in assay [5] was “Not Active” in each case.
Regarding `CCCCCC[C@H]1C(=O)O[C@H](C)[C@H](NC(=O)c2cccc(NC=O)c2O)C(=O)O[C@@H](C)[C@@H]1OC(=O)CC(C)C` [ANTIMYCIN A], the IC50 result in assay [1] (cho-k1), in assay [2], in assay [3] (platelet), in assay [4], in assay [5] and in assay [6] was “Not Active” throughout. Moreover, the concentration for half-maximal inhibition (IC50) result in assay [7] and in assay [8] was “Not Active” throughout. Moreover, the inhibitory constant (Ki) result in assay [4] and in assay [5] was “Not Active” each time.
Turning to `C[C@@H]1CC[C@H]2[C@@H](C)C(=O)O[C@@H]3O[C@@]4(C)CC[C@@H]1[C@]32OO4` [ARTEMISININ], the IC50 entry in assay [1] (cho-k1), in assay [2], in assay [3] (platelet), in assay [4], in assay [5] and in assay [6] was “Not Active” in each case. Besides, the IC50 result in assay [7] and in assay [8] was “Not Active” each time. Besides, the inhibition constant (Ki) entry in assay [4] and in assay [5] was “Not Active” each time.
Turning to `CO[C@H]1[C@@H](O)[C@H](N)[C@@H](O[C@H]2O[C@H]([C@H](C)N)CC[C@H]2N)[C@H](O)[C@@H]1N(C)C(=O)CN` [ASTROMICIN], the IC50 entry in assay [1] (cho-k1), in assay [2], in assay [3] (platelet), in assay [4], in assay [5] and in assay [6] was “Not Active” in each case. The IC50 entry in assay [7] and in assay [8] was “Not Active” in each case. The Ki result in assay [4] and in assay [5] was “Not Active” each time.
As for `CC[C@H]1OC(=O)[C@H](C)[C@@H](O[C@H]2C[C@@](C)(OC)[C@@H](O)[C@H](C)O2)[C@H](C)[C@@H](O[C@@H]2O[C@H](C)C[C@H](N(C)C)[C@H]2O)[C@](C)(O)C[C@@H](C)CN(C)[C@H](C)[C@@H](O)[C@]1(C)O` [AZITHROMYCIN], the concentration for half-maximal inhibition (IC50) entry in assay [1] (cho-k1), in assay [2], in assay [3] (platelet), in assay [4], in assay [5] and in assay [6] was “Not Active” each time. For the same compound, the IC50 entry in assay [7] and in assay [8] was “Not Active” throughout. The Ki entry in assay [4] and in assay [5] was “Not Active” each time.
Turning to `CC(C)(C)c1ccc(S(=O)(=O)/C=C/C#N)cc1` [BAY-11-7085], the IC50 entry in assay [1] (cho-k1), in assay [2], in assay [3] (platelet), in assay [4], in assay [5] and in assay [6] was “Not Active” each time. Moreover, the concentration for half-maximal inhibition (IC50) result in assay [7] and in assay [8] was “Not Active” in each case. In addition, the Ki result in assay [4] and in assay [5] was “Not Active” each time.
As to `CCc1oc2ccccc2c1C(=O)c1cc(Br)c(O)c(Br)c1` [BENZBROMARONE], the half-maximal inhibitory concentration (IC50) was 1800 nM in assay [1] (read-out: IC50); “Not Active” in assay [2]; “Not Active” in assay [3] (platelet); “Not Active” in assay [4]; “Not Active” in assay [5]; “Not Active” in assay [6]. Besides, the IC50 entry in assay [7] and in assay [8] was “Not Active” throughout. The results for the inhibition constant (Ki) in assay [1], in assay [4] and in assay [5] were 1150 nM, “Not Active” and “Not Active”, respectively.
Take `O=c1cc(-c2ccccc2)oc2ccc3ccccc3c12` [BETA-NAPHTHOFLAVONE]: the concentration for half-maximal inhibition (IC50) result in assay [1] (cho-k1), in assay [2], in assay [3] (platelet), in assay [4], in assay [5] and in assay [6] was “Not Active” each time. Further, the IC50 result in assay [7] and in assay [8] was “Not Active” each time. Besides, the Ki entry in assay [4] and in assay [5] was “Not Active” in each case.
For `O=C(/C=C/c1ccc(O)c(O)c1)OCCc1ccccc1` [CAFFEIC ACID PHENETHYL ESTER], the half-maximal inhibitory concentration (IC50) result in assay [1] (cho-k1) is “Not Active”; in assay [2], “Not Active”; in assay [3] (read-out: IC50), 833 nM; in assay [4], “Not Active”; in assay [5] it was “Not Active”; in assay [6] it was “Not Active”. In addition, the IC50 entry in assay [7] and in assay [8] was “Not Active” throughout. Also, the Ki result in assay [4] and in assay [5] was “Not Active” throughout.
Regarding `COc1cc(CNC(=O)CCCC/C=C/C(C)C)ccc1O` [CAPSAICIN], the IC50 entry is “Not Active” in assay [1] (cho-k1); “Not Active” in assay [2]; 1550 nM in assay [3] (read-out: IC50); “Not Active” in assay [4]; “Not Active” in assay [5]; “Not Active” in assay [6]. Moreover, the IC50 entry in assay [7] and in assay [8] was “Not Active” throughout. The Ki entry in assay [4] and in assay [5] was “Not Active” throughout.
`NC(=O)N1c2ccccc2C=Cc2ccccc21` [CARBAMAZEPINE]: the IC50 entry in assay [1] (cho-k1), in assay [2], in assay [3] (platelet), in assay [4], in assay [5] and in assay [6] was “Not Active” each time. For the same compound, the half-inhibitory concentration (IC50) result in assay [7] and in assay [8] was “Not Active” throughout. The inhibition constant (Ki) result in assay [4] and in assay [5] was “Not Active” throughout.
On to `CCOC(=O)n1ccn(C)c1=S` [CARBIMAZOLE], for which the half-maximal inhibitory concentration (IC50) result in assay [1] (cho-k1), in assay [2], in assay [3] (platelet), in assay [4], in assay [5] and in assay [6] was “Not Active” throughout. Also, the IC50 entry in assay [7] and in assay [8] was “Not Active” each time. In addition, the inhibition constant (Ki) result in assay [4] and in assay [5] was “Not Active” in each case.
